# Assay results: PMC4673935, “Synthesis, Antiplatelet Activity and Cytotoxicity Assessment of Indole-Based Hydrazone Derivatives” (Iranian Journal of Pharmaceutical Research : IJPR, 2015)
# Where two headings read alike, the source gives them in different places.
# Key:
# [1] = system: human platelet rich plasma (PRP), arachidonic acid-induced platelet aggregation; set-up: method as in PMID 23154304; details: inducer arachidonic acid, obtained in previous study, read-out: Antiplatelet aggregation activity, IC50, AA; cited from earlier work
# [2] = system: human platelet rich plasma (PRP), ADP-induced platelet aggregation; set-up: method as in PMID 23154304; details: inducer ADP, obtained in previous study, read-out: Antiplatelet aggregation activity, IC50, ADP; cited from earlier work
# [3] = system: Fibroblast L929 cell line; assay: Cytotoxicity assay, MTT method; format: cell-based; details: 24 h of exposure
# Protocol: (§1) The synthesized derivatives were assayed for their toxicity on Fibroblast L929 cell line by MTT [[…]] method. The compounds were initially screened at 100 µM concentration and IC50 was calculated for those showing more than 50% toxicity. The detailed procedure has been described in our previous work([18]).
# [4] = Cytotoxicity assay, MTT method; format: cell-based; details: mouse, fibroblast L929 cell line, 24 h of exposure
# Protocol: as §1
# [5] = system: human platelet rich plasma (PRP), collagen-induced platelet aggregation; assay: Collagen-induced platelet aggregation in human platelet rich plasma (Born turbidimetric method); format: cell-based; details: inducer collagen (5 µM); for IC50: Platelet, read-out: Antiplatelet aggregation activity, IC50, Collagen
# Protocol: (§2) The in vitro antiplatelet activity of the derivatives was evaluated using human platelet rich plasma (PRP)on an APACT 4004 aggregometerby Born’s reported turbidimetric method([16]). ADP (5 µM), arachidonic acid (1.25 mg/mL) and collagen (5 µM) were used as inducers of platelet aggregation. IC50 was defined as the concentration of the test compound that inhibits the platelet aggregation by 50%. The detailed procedure has been described in our previous works([11],[12],[17]).
# [6] = system: human platelet rich plasma (PRP), ADP-induced platelet aggregation; assay: ADP-induced platelet aggregation in human platelet rich plasma (Born turbidimetric method); format: cell-based; details: inducer ADP 5 µM, read-out: Antiplatelet aggregation activity, IC50, ADP
# Protocol: as §2
# [7] = system: human platelet rich plasma (PRP), arachidonic acid-induced platelet aggregation; assay: Arachidonic acid-induced platelet aggregation in human platelet rich plasma (Born turbidimetric method); format: cell-based; details: inducer arachidonic acid 1.25 mg/mL; for IC50: Platelet, read-out: Antiplatelet aggregation activity, IC50, AA
# Protocol: as §2
SMILES,IC50 [1],IC50 [2],"Cytotoxicity, IC50 [3]",IC50 at 24 h ([4]; L929 fibroblast cells),IC50 [5],"Antiplatelet aggregation activity, IC50, Collagen [5]",IC50 [6],IC50 [7],"Antiplatelet aggregation activity, IC50, AA [7]",melting point,IC50 at 24 h [4]
"C(=NNc1ccccc1)c1c[nH]c2ccccc12 [1a, indole-3-carboxaldehyde phenylhydrazone]",10 µM,> 100 µM,not toxic to fibroblast cells,> 100 µM,38.8 µM,moderate activity,,,,,
Fc1ccc(N/N=C/c2c[nH]c3ccccc23)cc1 [1b],,,not toxic to fibroblast cells,> 100 µM,> 100 µM,,> 100 µM,28.8 µM,,,
"Clc1ccccc1NN=Cc1c[nH]c2ccccc12 [1c, Indole-3-carboxaldehyde 2-chlorophenylhydrazone]",,,,45.9 µM,85.6 µM,,> 100 µM,14.6 µM,still acceptable,,
"Clc1cccc(NN=Cc2c[nH]c3ccccc23)c1 [1d, Indole-3-carboxaldehyde 3-chlorophenylhydrazone]",,,,,> 100 µM,,> 100 µM,28.1 µM,,211 to 214 °C,33.9 µM
Clc1ccc(N/N=C/c2c[nH]c3ccccc23)cc1 [1e],,,,,62.5 µM,moderate activity,> 100 µM,22.5 µM,,,66.7 µM
Brc1ccc(N/N=C/c2c[nH]c3ccccc23)cc1 [1f],,,,59.8 µM,> 100 µM,,100 µM,21.2 µM,still acceptable,,
"Cc1ccccc1NN=Cc1c[nH]c2ccccc12 [1g, Indole-3-carboxaldehyde 2-methylphenylhydrazone]",,,,85.1 µM,75.2 µM,moderate activity,> 100 µM,56.8 µM,,176 to 178 °C,
"Cc1ccc(NN=Cc2c[nH]c3ccccc23)cc1 [1h, Indole-3-carboxaldehyde 4-methylphenylhydrazone]",,,not toxic to fibroblast cells,> 100 µM,> 100 µM,,> 100 µM,57.2 µM,,,
"COc1ccc(NN=Cc2c[nH]c3ccccc23)cc1 [1i, Indole-3-carboxaldehyde 4-methoxyphenylhydrazone]",,,,74.5 µM,> 100 µM,,> 100 µM,7.13 µM,,,
"O=C(NN=Cc1c[nH]c2ccccc12)c1ccccc1 [2a, Indole-3-carboxaldehyde benzoylhydrazone]",,,,> 100 µM,> 100 µM,,> 100 µM,> 100 µM,,238 to 241 °C,
"O=C(NN=Cc1c[nH]c2ccccc12)c1cccc(Cl)c1 [2b, Indole-3-carboxaldehyde 3-chlorobenzoylhydrazone]",,,,> 100 µM,> 100 µM,,> 100 µM,> 100 µM,,215 to 218 °C,
"O=C(NN=Cc1c[nH]c2ccccc12)c1ccc(Cl)cc1 [2c, Indole-3-carboxaldehyde 4-chlorobenzoylhydrazone]",,,,> 100 µM,> 100 µM,,> 100 µM,> 100 µM,,,
"O=C(NN=Cc1c[nH]c2ccccc12)c1ccc([N+](=O)[O-])cc1 [2d, Indole-3-carboxaldehyde 4-nitrobenzoylhydrazone]",,,,> 100 µM,> 100 µM,,> 100 µM,> 100 µM,,250 to 253 °C,
"Cc1cccc(C(=O)NN=Cc2c[nH]c3ccccc23)c1 [2e, Indole-3-carboxaldehyde 3-methylbenzoylhydrazone]",,,,> 100 µM,> 100 µM,,> 100 µM,> 100 µM,,212 to 214 °C,
"Cc1ccc(C(=O)NN=Cc2c[nH]c3ccccc23)cc1 [2f, Indole-3-carboxaldehyde 4-methylbenzoylhydrazone]",,,,> 100 µM,> 100 µM,,> 100 µM,> 100 µM,,> 270 °C,
O=C(N/N=C/c1c[nH]c2ccccc12)c1ccncc1 [2g],> 100 µM,> 100 µM,,> 100 µM,> 100 µM,,,,,,
O=C(N/N=C/c1c[nH]c2ccc(Cl)cc12)c1ccccc1 [3a],,,,> 100 µM,> 100 µM,,> 100 µM,> 100 µM,,,
"O=C(NN=Cc1c[nH]c2ccc(Cl)cc12)c1cccc(Cl)c1 [3b, 5-Chloroindole-3-carboxaldehyde 3-chlorobenzoylhydrazone]",,,,55.5 µM,> 100 µM,,> 100 µM,> 100 µM,,230 to 233 °C,
O=C(N/N=C/c1c[nH]c2ccc(Cl)cc12)c1ccc(Cl)cc1 [3c],,,,71.3 µM,> 100 µM,,> 100 µM,> 100 µM,,,
"O=C(NN=Cc1c[nH]c2ccc(Cl)cc12)c1ccc([N+](=O)[O-])cc1 [3d, 5-Chloroindole-3-carboxaldehyde 4-nitrobenzoylhydrazone]",,,,> 100 µM,> 100 µM,,> 100 µM,> 100 µM,,> 270 °C,
"Cc1cccc(C(=O)NN=Cc2c[nH]c3ccc(Cl)cc23)c1 [3e, 5-Chloroindole-3-carboxaldehyde 3-methylbenzoylhydrazone]",,,,49.6 µM,> 100 µM,,> 100 µM,> 100 µM,,226 to 228 °C,
"Cc1ccc(C(=O)NN=Cc2c[nH]c3ccc(Cl)cc23)cc1 [3f, 5-Chloroindole-3-carboxaldehyde 4-methylbenzoylhydrazone]",,,,62.7 µM,> 100 µM,,> 100 µM,> 100 µM,,244 °C (dec.),
"O=C(NN=Cc1c[nH]c2ccc(Cl)cc12)c1ccncc1 [3g, 5-Chloroindole-3-carboxaldehyde isonicotinoylhydrazone]",,,,> 100 µM,> 100 µM,,> 100 µM,> 100 µM,,> 270 °C,
"CC(=O)Oc1ccccc1C(=O)O [Aspirin, reference compound]",,,,,9.7 µM,,> 100 µM,30.3 µM,,,
"COc1ccc2c(c1)c(CC(=O)O)c(C)n2C(=O)c1ccc(Cl)cc1 [Indometacin, reference compound]",,,,,1.5 µM,,> 100 µM,3 µM,,,
